One test relates to NCI/ADR-RES. The experiment in a line: Growth inhibition of human MCF7/ADR cells. Type of test: functional.
For another test, the system named is U-251. The experiment in a line: Growth inhibition of human U251 cells. Type of test: functional.
Another test deals with SW-620. The experiment in a line: Growth inhibition of human SW620 cells. Type of test: functional.
A further test deals with SK-OV-3. Kind of test: Growth inhibition of human SKOV3 cells. The test is classed as functional.
The subject of another test is DU-145. The experiment in a line: Growth inhibition of human DU145 cells. Type of test: functional.
A further test has as its system A498. Kind of test: Growth inhibition of human A498 cells. Type of test: functional.
The test system of the next test is MCF7. The experiment in a line: Growth inhibition of human MCF7 cells. The test is classed as functional.
Test [1] in a line: Growth inhibition of human OVCAR1 cells. The test is classed as functional.
Test [2] in a line: Cytotoxicity against human KKU-M213 cells assessed as reduction in cell viability after 24 hrs by MTT assay. The test is classed as functional, cell-based. The note with it: KKU-M213, 24 h.
The nature of test [3]: Antiviral activity against H9N2 subtype infected in MDCK cells after 2 to 3 days. The test is classed as functional, cell-based. To be noted: Influenza A virus.
The subject of another test is H5N1 subtype. Kind of test: Antiviral activity against H5N1 subtype infected in MDCK cells after 2 to 3 days. The test is classed as functional, organism-based. The note with it: Influenza A virus.
A short description of test [4]: Selectivity index, ratio of CC50 for MDCK cells to EC50 for H9N2 subtype.
The nature of test [5]: Antiviral activity H1N1 subtype infected in MDCK cells after 2 to 3 days. The test is classed as functional, cell-based. To be noted: Influenza A virus.
A short description of test [6]: Selectivity index, ratio of CC50 for MDCK cells to EC50 for H5N1 subtype.
The nature of test [7]: Selectivity index, ratio of CC50 for MDCK cells to EC50 for H1N1 subtype.
In a further test the test system is Rattus norvegicus. Kind of test: Hypoglycemic activity in diabetic rat assessed as decrease in blood glucose level at 150 mg/kg after 24 hrs relative to control. Further details: scale not given: the % may be the effect or the level left. The test is classed as functional.
In test [8] the target is T1, Bile acid receptor (Homo sapiens, UniProt Q96RI1).
T1 sequence (Q96RI1 whole entry): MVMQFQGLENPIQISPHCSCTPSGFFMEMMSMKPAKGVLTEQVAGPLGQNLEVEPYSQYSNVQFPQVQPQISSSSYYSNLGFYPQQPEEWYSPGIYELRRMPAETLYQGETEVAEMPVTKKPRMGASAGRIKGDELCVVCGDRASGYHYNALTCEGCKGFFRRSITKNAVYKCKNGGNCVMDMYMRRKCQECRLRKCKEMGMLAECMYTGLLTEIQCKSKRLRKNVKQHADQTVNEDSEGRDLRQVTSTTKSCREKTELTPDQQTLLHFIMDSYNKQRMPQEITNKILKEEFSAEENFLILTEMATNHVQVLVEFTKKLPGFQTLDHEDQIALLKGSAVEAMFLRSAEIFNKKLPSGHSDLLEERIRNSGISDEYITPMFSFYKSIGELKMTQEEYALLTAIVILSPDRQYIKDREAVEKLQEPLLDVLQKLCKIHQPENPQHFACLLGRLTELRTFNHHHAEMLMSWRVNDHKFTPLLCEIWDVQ
The experiment in a line: Antagonist activity at FXR (unknown origin).

Test [9] concerns the target T1, Bile acid receptor. Kind of test: Antagonist activity at Gal4 DBD-fused human FXR LBD expressed in human HepG2 cells after 8 hrs by luciferase reporter gene assay. The test is classed as cell-based.
The test system of test [10] is Mus musculus. The experiment in a line: Hypoglycemic activity in db/db mouse assessed as decrease in blood glucose level at 100 mg/kg administered daily for 6 days relative to control. Further details: scale not given: the % may be the effect or the level left. The test is classed as functional.
Test [11] has as its system Mus musculus. Kind of test: Decrease in plasma triglycerides level in db/db mouse at 100 mg/kg administered daily for 6 days relative to control. Type of test: functional. Further details: scale not given: the % may be the effect or the level left.

In the case of `CCC(=O)OC[C@@]1(C)[C@H]2CC[C@@]3(CO3)[C@@H](C/C=C3/C(=O)OC[C@H]3OC(=O)/C=C/c3ccc(OC)c(OC)c3)[C@]2(C)CC[C@H]1OC(=O)CC`, the GI50 in the test on NCI/ADR-RES, in the test on U-251, in the test on SW-620, with SK-OV-3, in the test with DU-145 and in the test with A498 was 400 to 7500 nM in each case.

In the test with U-251, `C=C1CC[C@@H]2[C@](C)(CO)[C@H](O)CC[C@@]2(C)[C@@H]1C/C=C1/C(=O)OC[C@H]1OC(=O)c1ccccc1` displayed a GI50 of 1500 nM.

`C=C1CC[C@@H]2[C@](C)(CO)[C@H](O)CC[C@@]2(C)[C@@H]1C/C=C/c1ccc(F)cc1` had a concentration for 50% growth inhibition (GI50) in the test on DU-145 of 2000 to 27000 nM.

Compound `C=C1CC[C@@H]2[C@](C)(CO)[C@H](O)CC[C@@]2(C)[C@@H]1C/C=C/c1cccc(Cl)c1` returned a GI50 with DU-145 of 2000 to 27000 nM.

`C=C1CC[C@@H]2[C@](C)(CO)[C@H](O)CC[C@@]2(C)[C@@H]1C/C=C1/SC(=O)NC1=O` had a GI50 in the test with DU-145 of 780 nM.

Consider `C=C1CC[C@@H]2[C@](C)(COC(C)=O)[C@H](OC(C)=O)CC[C@@]2(C)[C@@H]1CC(C1=CCOC1=O)n1cc(I)c(=O)[nH]c1=O` (some centres not stated), for which the 50% growth inhibitory concentration (GI50) (with NCI/ADR-RES; with U-251; in the test with MCF7; in test [1]) was 2000 nM in each case.

Regarding `CC(C)(C)[Si](OC[C@@]1(C)[C@H]2CC[C@@]3(CO3)[C@@H](C/C=C3/C(=O)OC[C@H]3O)[C@]2(C)CC[C@H]1O)(c1ccccc1)c1ccccc1`, in [2], the IC50 was 8000 nM.

In turn, `C=C1CC[C@@H]2[C@]3(C)COC(C)(c4ccccc4)O[C@@H]3CC[C@@]2(C)[C@@H]1CC(C1=CCOC1=O)N1CCCC1C(=O)OC` (some centres not stated) registered a GI50 in test [1] of 1000 nM.

Take `C=C1CC[C@@H]2[C@](C)(CO)[C@H](O)CC[C@@]2(C)[C@@H]1C/C=C1/C(=O)OC[C@H]1OC(=O)Nc1ccccc1`: the GI50 in the test with NCI/ADR-RES came to 400 nM.

Take `C[C@]1(CO)[C@H]2CC[C@@]3(CO3)[C@@H](C/C=C3/C(=O)OC[C@H]3OC(=O)/C=C/c3ccccc3)[C@]2(C)CC[C@H]1O`: the GI50 with NCI/ADR-RES, with U-251, with SW-620, with SK-OV-3, in the test with DU-145 and in the test with A498 was 500 to 9000 nM in each case.

Turning to `C=C1CC[C@@H]2[C@](C)(CO)[C@H](O)CC[C@@]2(C)[C@@H]1C/C=C1/C(=O)OC[C@H]1OC(=O)CCCCC1CCSS1` (some centres not stated), the EC50 (in test [3]; with H5N1 subtype; in test [5]) was 7200 to 15200 nM in each case. For the same compound, the “Selectivity Index” value in test [4], in test [6] and in test [7] was 51 - 109 throughout.

For the compound `CCC(=O)OC[C@@]1(C)[C@H]2CC[C@@]3(CO3)[C@@H](C/C=C3/C(=O)OC[C@H]3OC(=O)/C=C/c3cccc(OC)c3)[C@]2(C)CC[C@H]1OC(=O)CC`, the GI50 with NCI/ADR-RES, with U-251, in the test on SW-620, in the test on SK-OV-3, in the test with DU-145 and in the test with A498 was 600 to 4800 nM throughout.

Turning to `COc1ccc(Cl)cc1C(=O)NCCc1ccc(S(=O)(=O)NC(=O)NC2CCCCC2)cc1` [GLYBURIDE], the Activity in the test with Rattus norvegicus was determined as 62.02%.

Regarding `C=C1CC[C@@H]2[C@](C)(COC(C)=O)[C@H](OC(C)=O)CC[C@@]2(C)[C@@H]1C/C=C1/C(=O)OC[C@H]1OC(=O)CNC(C)=O`, growth in the test with U-251 was halved (GI50) at 1500 nM.

`C=C1CC[C@@H]2[C@](C)(CO)[C@H](O)CC[C@@]2(C)[C@@H]1C/C=C/c1ccccc1` showed a 50% growth inhibitory concentration (GI50) in the test with DU-145 of 2000 to 27000 nM.

Consider `CC(=O)OC[C@@]1(C)[C@H]2CC[C@@]3(CO3)[C@@H](CC(Sc3ccccc3)C3=CCOC3=O)[C@]2(C)CC[C@H]1OC(C)=O` (some centres not stated), for which the GI50 in the test on DU-145 was found to be 2000 nM.

`C=C1CC[C@@H]2[C@]3(C)COC(C)(C)O[C@@H]3CC[C@@]2(C)[C@@H]1Cc1cc(=O)[nH]c(N)n1` had a GI50 with DU-145 of 200 nM.

In turn, `C=C1CC[C@@H]2[C@]3(C)COC(C)(C)O[C@@H]3CC[C@@]2(C)[C@@H]1C/C=C1/C(=O)OC[C@@H]1Oc1ccc([N+](=O)[O-])cc1OC` returned an IC50 against Bile acid receptor [8] of 550 to 2000 nM.

In the case of `CC(=O)OC[C@@]1(C)[C@H]2CC[C@@]3(CO3)[C@@H](C/C=C3/C(=O)OC[C@H]3OC(C)=O)[C@]2(C)CC[C@H]1OC(C)=O`, the GI50 in the test on NCI/ADR-RES, in the test on U-251, with SW-620, in the test on SK-OV-3, in the test on DU-145 and in the test with A498 was 250 to 5000 nM each time.

As to `CCC(=O)OC[C@@]1(C)[C@H]2CC[C@@]3(CO3)[C@@H](C/C=C3/C(=O)OC[C@H]3OC(=O)/C=C/c3ccccc3)[C@]2(C)CC[C@H]1OC(=O)CC`, the GI50 in the test on NCI/ADR-RES, in the test on U-251, in the test with SW-620, in the test on SK-OV-3, in the test with DU-145 and with A498 was 80 to 6000 nM in each case.

In turn, `C=C1CC[C@@H]2[C@]3(C)COC(C)(c4ccccc4)O[C@@H]3CC[C@@]2(C)[C@@H]1CC(NC(Cc1ccccc1)C(=O)OC)C1=CCOC1=O` (some centres not stated) yielded a concentration for 50% growth inhibition (GI50) in test [1] of 1400 nM.

`C=C1CC[C@@H]2[C@](C)(CO)[C@H](O)CC[C@@]2(C)[C@@H]1C/C=C1/C(=O)OC[C@@H]1Oc1ccccc1OC` displayed an IC50 against Bile acid receptor [8] of 550 to 2000 nM.

As for `C=C1CC[C@@H]2[C@](C)(CO)[C@H](O)CC[C@@]2(C)[C@@H]1C/C=C1/C(=O)OC[C@H]1O` [ANDROGRAPHOLIDE], the IC50 at Bile acid receptor [9] and against Bile acid receptor [8] was 9700 nM throughout. The GI50 in the test with NCI/ADR-RES, in the test with U-251, with SW-620, in the test with SK-OV-3, with DU-145 and in the test on A498 was 3000 to 20000 nM throughout. In addition, the GI50 (in the test on MCF7; in test [1]) was 3000 to 20000 nM throughout. The Activity in the test on Mus musculus [10] was found to be 64%; in the test on Mus musculus [11], 54%.

For the origin of these results see ChEMBL document CHEMBL4350994, “Andrographolide: A natural product template for the generation of structurally and biologically diverse diterpenes” (Eur J Med Chem, 2019).
